Experimental data taken from patent US12246026B2, “Ganaxolone for use in treatment of status epilepticus” (Marinus Pharmaceuticals, Inc., priority 2019, dated 2025).
“Also recorded” adds a separate entry of the source.

Legend:
[1] = Phase 2 Study 1042-SE-2001 open-label group, safety; type: in vivo, human
Procedure: As of 22 Mar. 2019, 5 subjects were enrolled into the Study 1042-SE-2001 open-label group under the original protocol that limits daily Captisol exposure at 35 g/day. […] The initial EEG pattern post-infusion initiation was described by study physicians as a “light” burst suppression that was maintained for several hours in all subjects. […] It was observed that when GNX exposure was lowered (20 mg/hr for 2 hours and ending with 10 mg/hr for the remaining 18 hours on Day 1) in order not to exceed this limit, seizure control could not be maintained and seizure activity (but not SE) re-occurred as evidenced by EEG changes. […] Seizure activity relapsed when plasma concentrations of GNX decreased <500 ng/mL in 4 out of 5 subjects.
Subject 015-101 was a person who presented with focal convulsive SE due to a tumor (Day 1). Recent medical history included convulsive seizures, SE, and Glioblastoma multiform of parietal lobe. Subject was administered levetiracetam for SE and lorazepam, diazepam, dexamethasone, and multiple doses of levetiracetam for seizure control prior to study enrollment. On Day 3, the subject was enrolled in the study and started on IV GNX 30 mg bolus dose plus continuous infusion (85 mg/hr). At the start of dose initiation the subject was alert. […] They were arousable to voice but required continuous stimulation to stay awake or follow commands. They maintained their airway and was able to endorse that the numbness had resolved and reported that they no longer felt twitches. […] The subject had significant direction-changing nystagmus and complained of blurry vision. […] During the next 2 hours the subject remained somnolent and was becoming increasingly restless. As per the protocol, GNX was decreased to 40 mg/hr at 2 hours post dose initiation. Approximately 10 to 15 minutes after the infusion rate was decreased to 40 mg/hr, the subject's arousal improved, they became conversational, and wanted to eat. They had no seizures at this time. Vital signs remained stable. During the GNX infusion, concomitant lacosamide was increased due to increased numbness. […] Once the GNX taper was completed the investigator reported there were no sequelae.
Under the protocol amended with the 50 g/day Captisol limit, 1 subject was enrolled in the open-label study as of 26 Mar. 2019. The subject presented with NCSE due to a tumor. The subject failed 3 second-line IV AEDs and qualified for the study based on the study's inclusion/exclusion criteria. Within 3 minutes after starting the IV GNX infusion, the RSE ceased and seizure protection was maintained for the remaining 48 hours of GNX treatment. […] Pharmacokinetic data were unavailable at the time of this report.

CYP3A4/5 = assay: Metabolism by CYP enzymes; settings: human
progesterone receptor = target: T1, progesterone receptor (Homo sapiens, UniProt P06401); assay: Progesterone receptor activation; settings: directly or indirectly via metabolic conversion
T1 sequence (P06401 1-933): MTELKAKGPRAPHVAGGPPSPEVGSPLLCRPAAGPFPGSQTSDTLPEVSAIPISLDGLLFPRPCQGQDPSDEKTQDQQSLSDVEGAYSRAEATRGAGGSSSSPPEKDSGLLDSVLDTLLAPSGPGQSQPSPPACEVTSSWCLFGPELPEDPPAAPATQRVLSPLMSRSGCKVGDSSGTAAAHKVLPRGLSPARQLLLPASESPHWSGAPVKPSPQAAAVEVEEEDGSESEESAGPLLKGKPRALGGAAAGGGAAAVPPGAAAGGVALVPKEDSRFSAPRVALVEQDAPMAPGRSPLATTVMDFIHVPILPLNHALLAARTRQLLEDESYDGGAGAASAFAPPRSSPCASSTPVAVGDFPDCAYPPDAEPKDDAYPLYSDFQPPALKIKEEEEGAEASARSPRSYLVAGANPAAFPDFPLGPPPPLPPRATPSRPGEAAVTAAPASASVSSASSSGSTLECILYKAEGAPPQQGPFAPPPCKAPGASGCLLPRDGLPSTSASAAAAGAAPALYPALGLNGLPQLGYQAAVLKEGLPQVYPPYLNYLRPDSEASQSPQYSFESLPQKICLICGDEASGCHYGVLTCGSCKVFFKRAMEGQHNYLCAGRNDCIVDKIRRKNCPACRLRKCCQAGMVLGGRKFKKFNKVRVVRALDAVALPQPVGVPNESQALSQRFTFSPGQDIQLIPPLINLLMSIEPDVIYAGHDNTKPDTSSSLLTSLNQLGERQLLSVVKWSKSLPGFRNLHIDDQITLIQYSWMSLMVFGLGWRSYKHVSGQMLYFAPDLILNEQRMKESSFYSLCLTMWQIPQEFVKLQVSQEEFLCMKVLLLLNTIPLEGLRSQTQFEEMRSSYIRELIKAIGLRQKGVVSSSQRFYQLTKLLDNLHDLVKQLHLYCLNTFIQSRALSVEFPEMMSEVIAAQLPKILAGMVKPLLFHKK
Text: Ganaxolone (3α-hydroxy-3β-methyl-5α-pregnan-20-one) is a 3β-methylated synthetic analogue of the endogenous neurosteroid allopregnanolone with similar biological activity (Carter et al., (1997), The Journal of Pharmacology and Experimental Therapeutics, 280:1284-1295), but it is designed to not activate nuclear (classical) progesterone receptors. Also, in contrast to allopregnanolone, ganaxolone is orally bioavailable.

[2] = Safety in the ganaxolone clinical development program; type: in vivo, human
Text: In the completed placebo-controlled Phase 1, 2, and 3 studies, 0.32% of subjects who received ganaxolone and 0.46% of subjects who received placebo developed elevated LFTs during the study (>3×ULN AST and/or ALT). A subject participating in the ganaxolone paediatric epilepsy study developed liver failure, which was not considered to be related to ganaxolone. The subject was diagnosed with short bowel syndrome, liver steatosis and IgG-cholangitis, which were considered to be the causal factors for the subject's liver failure. There have been no other cases of Hy's Law or liver failure in the ganaxolone development program. […] After cessation of the dosing, plasma ganaxolone levels are expected to drop rapidly, but it is possible that low sub-therapeutic levels persist for several days as ganaxolone is slowly released from tissues.
Ganaxolone has been administered to infants with severe forms of epilepsy as early as 4 months of age. In clinical trials involving administration of ganaxolone over several weeks, the study drug has been tapered off over a 1 to 2-week period.

In the case of `CC(=O)[C@H]1CC[C@H]2[C@@H]3CC[C@H]4C[C@](C)(O)CC[C@]4(C)[C@H]3CC[C@]12C` [Ganaxolone, 3α-hydroxy-3β-methyl-5α-pregnan-20-one], the “safety finding related to GNX” value ([1]; 1 subject, amended protocol, concomitant AEDs) is reported as “increased sedation”, the “GNX-related cardiovascular events requiring pharmacological intervention” value ([1]; 5 subjects) is reported as “no GNX-related cardiovascular events that required pharmacological intervention were observed” and the “intubation as a direct result of GNX therapy” value ([1]; 5 subjects) is reported as “no subjects had to be intubated as a direct result of GNX therapy”. The “adverse observations during infusion” value ([1]; Subject 015-101, 30 mg bolus, 85 mg/hr, listed as GNX) was “significant somnolence; also recorded: urinary retention with urgency”, the metabolizing enzymes (CYP3A4/5) was “metabolized by CYP3A4/5” and the “activation of the progesterone receptor” value (progesterone receptor) was “does not activate the progesterone receptor directly or indirectly”. The “withdrawal symptoms after cessation” value ([2]; clinical trials, tapered off over 1 to 2 weeks) was “no reports of withdrawal symptoms”, the “subjects who developed elevated LFTs (>3×ULN AST and/or ALT)” value ([2]; completed placebo-controlled Phase 1, 2 and 3 studies) was 0.32% and the “trends in ECG intervals, vital signs, physical or neurological examinations” value ([2]; development program overall) was “no clinically significant trends”. For the same compound, the “excretion to breast milk” value ([2]; ganaxolone and its metabolites) was “excreted to breast milk”.
